Patent US20260022143A1, “Cyclic Peptide Inhibitors of IL-23” (JANSSEN PHARMACEUTICA NV, priority 2022, published 2026)
Starred links: 1 amine or outer side, 2 acyl side, 3 side chain; linkers in the order of their positions; H or OH if unused. Positions of bridges follow the written chain, without caps; N, C: chain ends. Non-standard residues stand in square brackets, D forms with d. Residues, ends and D or L forms follow the SMILES beside them. *: point of attachment. X36 = C[N+]1(CCCc2cn(-c3ccc(C[C@H](N[*:1])C(=O)[*:2])cc3)nn2)CCOCC1; NH(CH2CH2O)2CH2CH2NMe3+ = C[N+](C)(C)CCOCCOCCN*; Trp(7-Me) = Cc1cccc2c(C[C@H](N)C(=O)O)c[nH]c12; Abu(4-yl) = O=C([C@H](CC[*:3])N[*:1])[*:2]; Hexanoyl(6-NMe3+) = C[N+](C)(C)CCCCCC(=O)*; dLys(Me3) = C[N+](C)(C)CCCC[C@@H](N)C(=O)O; 2Nal = N[C@@H](Cc1ccc2ccccc2c1)C(=O)O; AEF = NCCOc1ccc(C[C@H](N)C(=O)O)cc1; X10 = C[N+](C)(C)C[C@H](CC(=O)O)N*; 3Pal = N[C@@H](Cc1cccnc1)C(=O)O; Lys(Me) = CNCCCC[C@H](N)C(=O)O; Pen = CC(C)(S)[C@H](N)C(=O)O; X4 = COCCOCCCN(CCCOCCOC)CC*; αMeC = C[C@](N)(CS)C(=O)O; Thp = NC1(C(=O)O)CCOCC1; Dap = NC[C@H](N)C(=O)O; X3 = C[N+](C)(C)CCCCC*; Sar = CNCC(=O)O

Assay: Exposed Polar Surface Area (EPSA)
Format: physicochemical
Details: SFC on Chirex 3014 column; sample 1 mM DMSO stock; read-out: EPSA
Outline: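 Polarity descriptor in Å² derived from retention time using 8 calibration standards re-run every 20 compounds. Duplicate injections of 1 mM DMSO stock; linear 5–60% modifier gradient (20 mM ammonium formate in MeOH) with CO2 at 4 mL/min, 35 °C, on a Chirex 3014 column.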

| Compound | EPSA [A^2] |
| --- | --- |
| COCCOCCCN(CCCOCCOC)CCOc1ccc(C[C@H](NC(=O)[C@H]2NC(=O)[C@H](CCCCNC(C)=O)NC(=O)[C@H](Cc3c[nH]c4c(C)cccc34)NC(=O)[C@H]([C@@H](C)O)NC(=O)[C@H](CC(N)=O)NC(=O)[C@@H](NC(=O)CCCCC[N+](C)(C)C)C(C)(C)SSC2(C)C)C(=O)N[C@@H](Cc2ccc3ccccc3c2)C(=O)NC2(C(=O)N[C@@H](CNC(C)=O)C(=O)N[C@@H](CC(N)=O)C(=O)N[C@@H](Cc3cccnc3)C(=O)N(C)CC(N)=O)CCOCC2)cc1 [compound 205] ({Hexanoyl(6-NMe3+)}-[Pen]NT[Trp(7-Me)]K(Ac)[Pen]Y(X4)[2Nal][Thp][Dap](Ac)N[3Pal][Sar]-NH2; disulfide 1-6) | 149 |
| CC(=O)NCCCC[C@@H]1NC(=O)[C@H](Cc2c[nH]c3c(C)cccc23)NC(=O)[C@H]([C@@H](C)O)NC(=O)[C@H](CC(N)=O)NC(=O)[C@@H](NC(C)=O)C(C)(C)SSC(C)(C)[C@@H](C(=O)N[C@@H](Cc2ccc(OCCN)cc2)C(=O)N[C@@H](Cc2ccc3ccccc3c2)C(=O)NC2(C(=O)N[C@@H](CCC(=O)N[C@@H](CC(=O)O)C[N+](C)(C)C)C(=O)N[C@@H](CC(N)=O)C(=O)N[C@@H](Cc3cccnc3)C(=O)N(C)CC(N)=O)CCOCC2)NC1=O [compound 128] (Ac-[Pen]NT[Trp(7-Me)]K(Ac)[Pen][AEF][2Nal][Thp]E(X10)N[3Pal][Sar]-NH2; disulfide 1-6) | 175 |
| CC(=O)N[C@@H]1C(=O)N[C@@H](CC(=O)N(C)C)C(=O)N[C@@H]([C@@H](C)O)C(=O)N[C@@H](Cc2c[nH]c3c(C)cccc23)C(=O)N[C@@H](CCCCN(C)C(C)=O)C(=O)N[C@H](C(=O)N[C@@H](Cc2ccc(OCCCCC[N+](C)(C)C)cc2)C(=O)N[C@@H](Cc2ccc3ccccc3c2)C(=O)NC2(C(=O)N[C@@H](CCCCN(C)C(C)=O)C(=O)N[C@@H](CC(N)=O)C(=O)N[C@@H](Cc3cccnc3)C(=O)N(C)CC(=O)NCCOCCOCC[N+](C)(C)C)CCOCC2)C(C)(C)SSC1(C)C [compound 219, MeCO-Pen(3)-N(N(Me)2)-T-7MeW-K(NMeAc)-Pen(3)-TMAPF-2Nal-THP-K(NMeAc)-N-3Pya-Sar-CO(NHPEG3a)] (Ac-[Pen]D(NMe2)T[Trp(7-Me)][Lys(Me)](Ac)[Pen]Y(X3)[2Nal][Thp][Lys(Me)](Ac)N[3Pal][Sar]-{NH(CH2CH2O)2CH2CH2NMe3+}; disulfide 1-6 (inferred)) | 139 |

Next, values leading:

| EPSA [A^2] | Compound |
| --- | --- |
| 173 | CC(=O)NCCCC[C@@H]1NC(=O)[C@H](Cc2c[nH]c3c(C)cccc23)NC(=O)[C@H]([C@@H](C)O)NC(=O)[C@H](CC(N)=O)NC(=O)[C@@H](NC(C)=O)C(C)(C)SSC(C)(C)[C@@H](C(=O)N[C@@H](Cc2ccc(-n3cc(CCC[N+]4(C)CCOCC4)nn3)cc2)C(=O)N[C@@H](Cc2ccc3ccccc3c2)C(=O)NC2(C(=O)N[C@@H](CCC(=O)O)C(=O)N[C@@H](CC(N)=O)C(=O)N[C@@H](Cc3cccnc3)C(=O)N(C)CC(N)=O)CCOCC2)NC1=O [compound 453] (Ac-[Pen]NT[Trp(7-Me)]K(Ac)[Pen][X36][2Nal][Thp]EN[3Pal][Sar]-NH2; disulfide 1-6) |
| 173 | CC(=O)NCCCC[C@@H]1NC(=O)[C@H](Cc2c[nH]c3ccccc23)NC(=O)[C@H]([C@@H](C)O)NC(=O)[C@H](CC(N)=O)NC(=O)[C@@H](NC(=O)[C@@H](CCCC[N+](C)(C)C)NC(C)=O)CCSC[C@@](C)(C(=O)N[C@@H](Cc2ccc(OCCN)cc2)C(=O)N[C@@H](Cc2ccc3ccccc3c2)C(=O)NC2(C(=O)N[C@@H](CCCCNC(C)=O)C(=O)N[C@@H](CC(N)=O)C(=O)N[C@@H](Cc3cccnc3)C(=O)N(C)CC(N)=O)CCOCC2)NC1=O [compound 569, MeCO-k(Me)3-Abu(1)-N-T-W-K(Ac)-aMeC(1)-AEF-2Nal-THP-K(Ac)-N-3Pya-Sar-CONH2] (Ac-[dLys(Me3)][Abu(4-yl)]NTWK(Ac)[αMeC][AEF][2Nal][Thp]K(Ac)N[3Pal][Sar]-NH2; thioether 2-7) |
| 180 | CC(=O)NCCCC[C@@H]1NC(=O)[C@H](Cc2c[nH]c3c(-c4cccc(NC(C)=O)c4)cccc23)NC(=O)[C@H]([C@@H](C)O)NC(=O)[C@H](CC(N)=O)NC(=O)[C@@H](NC(C)=O)C(C)(C)SSC(C)(C)[C@@H](C(=O)N[C@@H](Cc2ccc(OCCNC(=N)N)cc2)C(=O)N[C@@H](Cc2ccc3ccccc3c2)C(=O)NC2(C(=O)N[C@@H](CCCCN(C)C(C)=O)C(=O)N[C@@H](CC(N)=O)C(=O)N[C@@H](Cc3cncc(C)c3)C(=O)N(C)CC(N)=O)CCOCC2)NC1=O [compound 482, MeCO-Pen(3)-N-T-7(3NAcPh)W-K(Ac)-Pen(3)-AEF(G)-2Nal-THP-K(NMeAc)-N-5MePyridinAla-Sar-CONH2] |
